Experimental data taken from ChEMBL document CHEMBL1201862, “PubChem BioAssay data set” (2004).
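96-well plates; 48 h exposure; 5 concentrations. Endpoints by linear interpolation between flanking doses. Not reached: highest tested concentration assigned. At the GI50, growth is halved.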 Activity calls are given as the source filed them. Rule as the data show it: active = GI50 up to about 1.1 µM and inactive = higher.

Experiments:
Assay in all cases: DTP human tumour cell line panel, 48 h
SF-268 = test system: SF-268
M14 = test system: M14
LOX IMVI = test system: LOX IMVI
NCI/ADR-RES = test system: NCI/ADR-RES
OVCAR-3 = test system: OVCAR-3
Malme-3M = test system: Malme-3M
HT-29 = test system: HT-29
SF-539 = test system: SF-539
HOP-92 = test system: HOP-92
RXF 393 = test system: RXF 393
A549 = test system: A549
HOP-62 = test system: HOP-62
UO-31 = test system: UO-31
K562 = test system: K562
OVCAR-4 = test system: OVCAR-4
NCI-H460 = test system: NCI-H460
CCRF-CEM = test system: CCRF-CEM
SW-620 = test system: SW-620
HCC 2998 = test system: HCC 2998
NCI-H522 = test system: NCI-H522

Row | SMILES | GI50 (SF-268) | GI50 (M14) | GI50 (LOX IMVI) | GI50 (NCI/ADR-RES) | GI50 (OVCAR-3) | GI50 (Malme-3M) | GI50 (HT-29) | GI50 (SF-539) | GI50 (HOP-92) | GI50 (RXF 393) | GI50 (A549) | GI50 (HOP-62) | GI50 (UO-31) | GI50 (K562) | GI50 (OVCAR-4) | GI50 (NCI-H460) | GI50 (CCRF-CEM) | GI50 (SW-620) | GI50 (HCC 2998) | GI50 (NCI-H522)
1 | Cc1c(NC(=O)c2cc([N+](=O)[O-])cc([N+](=O)[O-])c2)c(=O)n(-c2ccccc2)n1C | > 100 µM (inactive) | > 100 µM (inactive) | > 100 µM (inactive) | > 100 µM (inactive) | 29.9 µM (inactive) | 27.3 µM (inactive) | 33.2 µM (inactive) | 69.8 µM (inactive) | 76.9 µM (inactive) | > 100 µM (inactive) | > 100 µM (inactive) | > 100 µM (inactive) | > 100 µM (inactive) | > 100 µM (inactive) | 43.9 µM (inactive) | 97.7 µM (inactive) | > 100 µM (inactive) | > 100 µM (inactive) | – | –
2 | C/C(=N\NC(=S)Nc1ccc([N+](=O)[O-])cc1)c1nc2cccnc2[nH]1 | 0.278 µM (active) | 1.26 µM (inactive) | 0.442 µM (active) | 1.13 µM (inactive) | 0.299 µM (active) | 1.36 µM (inactive) | 0.615 µM (active) | 0.288 µM (active) | 1.51 µM (inactive) | – | 0.783 µM (active) | 1.07 µM (active) | 0.322 µM (active) | 1.55 µM (inactive) | 0.583 µM (active) | 0.379 µM (active) | 0.381 µM (active) | 0.906 µM (active) | 1.15 µM (inactive) | 1.06 µM (active)
3 | O=C1NC(=O)/C(=C\c2ccncc2)N1 | – | > 100 µM (inactive) | > 100 µM (inactive) | > 100 µM (inactive) | > 100 µM (inactive) | – | > 100 µM (inactive) | > 100 µM (inactive) | > 100 µM (inactive) | – | > 100 µM (inactive) | > 100 µM (inactive) | > 100 µM (inactive) | – | > 100 µM (inactive) | > 100 µM (inactive) | – | > 100 µM (inactive) | > 100 µM (inactive) | –
4 | Nc1ccccc1-n1c2c(c3ccccc3c1=O)C(=O)c1ccccc1-2 | 8.24 µM (inactive) | 61.7 µM (inactive) | 12.5 µM (inactive) | 14.6 µM (inactive) | 21.8 µM (inactive) | 16.3 µM (inactive) | 18.4 µM (inactive) | 3.13 µM (inactive) | 16.6 µM (inactive) | – | 11.5 µM (inactive) | 7.14 µM (inactive) | 11.1 µM (inactive) | > 100 µM (inactive) | 4.11 µM (inactive) | 24.5 µM (inactive) | 48.9 µM (inactive) | 14.5 µM (inactive) | 21.8 µM (inactive) | 6.58 µM (inactive)
5 | O=Cc1cn(CCCCCn2cc(C=O)c3ccccc32)c2ccccc12 | 16.7 µM (inactive) | > 100 µM (inactive) | 41.5 µM (inactive) | > 100 µM (inactive) | > 100 µM (inactive) | > 100 µM (inactive) | > 100 µM (inactive) | > 100 µM (inactive) | > 100 µM (inactive) | 6.55 µM (inactive) | > 100 µM (inactive) | – | > 100 µM (inactive) | > 10 µM (inactive) | – | 0.124 µM (active) | > 100 µM (inactive) | > 100 µM (inactive) | – | 8.18 µM (inactive)
6 | CC(C)(C)OC(=O)n1cc(C2CNC(=O)C23CCC(=O)N3Cc2ccccc2)c2ccccc21 (stereo not given) | 31.6 µM (inactive) | 27.4 µM (inactive) | 19.8 µM (inactive) | 32.4 µM (inactive) | 19.2 µM (inactive) | 21.9 µM (inactive) | 19.1 µM (inactive) | 19.4 µM (inactive) | 10.9 µM (inactive) | 21.9 µM (inactive) | 18.7 µM (inactive) | 24.8 µM (inactive) | 22.1 µM (inactive) | 41.1 µM (inactive) | 18.7 µM (inactive) | 20.7 µM (inactive) | 25.9 µM (inactive) | 33.5 µM (inactive) | – | 17.8 µM (inactive)
7 | CNc1ccc([S+]([O-])Nc2ccc(OC)cc2)cc1 (stereo not given) | > 100 µM (inactive) | > 100 µM (inactive) | 7.38 µM (inactive) | 27.9 µM (inactive) | > 100 µM (inactive) | 41.7 µM (inactive) | 33.7 µM (inactive) | 33.2 µM (inactive) | > 100 µM (inactive) | – | 66.2 µM (inactive) | > 100 µM (inactive) | 7 µM (inactive) | 21.3 µM (inactive) | > 100 µM (inactive) | 32 µM (inactive) | 46.5 µM (inactive) | 31.6 µM (inactive) | 50.2 µM (inactive) | > 100 µM (inactive)
8 | CC1(C)C2CCC(CN)(C2)C1N (stereo not given) | > 100 µM (inactive) | > 100 µM (inactive) | > 100 µM (inactive) | > 100 µM (inactive) | > 100 µM (inactive) | > 100 µM (inactive) | > 100 µM (inactive) | > 100 µM (inactive) | > 100 µM (inactive) | > 100 µM (inactive) | > 100 µM (inactive) | > 100 µM (inactive) | > 100 µM (inactive) | > 100 µM (inactive) | > 100 µM (inactive) | 4.49 µM (inactive) | > 100 µM (inactive) | > 100 µM (inactive) | 9.42 µM (inactive) | –
9 | OCCCCCCCCCCCOc1ccc(C2OCC3(CC=CCC3)CO2)cc1 (stereo not given) | 17.9 µM (inactive) | 11.1 µM (inactive) | 11.7 µM (inactive) | 14.7 µM (inactive) | 19.1 µM (inactive) | 18.1 µM (inactive) | 3.85 µM (inactive) | 19.1 µM (inactive) | 16.9 µM (inactive) | – | 17.1 µM (inactive) | 14.4 µM (inactive) | 17.5 µM (inactive) | – | 15.7 µM (inactive) | 16.9 µM (inactive) | 11 µM (inactive) | 16 µM (inactive) | 17.9 µM (inactive) | 5.08 µM (inactive)
10 | NC(=O)C1=NNc2ccccc2C(=O)N1c1ccccc1 | > 100 µM (inactive) | > 100 µM (inactive) | > 100 µM (inactive) | > 100 µM (inactive) | > 100 µM (inactive) | > 100 µM (inactive) | > 100 µM (inactive) | > 100 µM (inactive) | > 10 µM (inactive) | > 100 µM (inactive) | > 100 µM (inactive) | > 100 µM (inactive) | > 100 µM (inactive) | – | > 100 µM (inactive) | > 100 µM (inactive) | > 100 µM (inactive) | > 100 µM (inactive) | – | > 100 µM (inactive)
11 | Nc1cnc2c(c1)c(=O)nc1n2CCS1 | > 100 µM (inactive) | – | > 100 µM (inactive) | > 100 µM (inactive) | > 100 µM (inactive) | > 100 µM (inactive) | > 100 µM (inactive) | > 100 µM (inactive) | > 100 µM (inactive) | > 100 µM (inactive) | > 100 µM (inactive) | > 100 µM (inactive) | 64 µM (inactive) | > 100 µM (inactive) | > 100 µM (inactive) | > 100 µM (inactive) | 77.6 µM (inactive) | > 100 µM (inactive) | > 100 µM (inactive) | –
12 | O=C(O)Cc1ccc(/N=N/c2c(O)c(C(=O)O)cc3ccccc23)cc1 | > 100 µM (inactive) | > 100 µM (inactive) | – | > 100 µM (inactive) | > 100 µM (inactive) | 24.8 µM (inactive) | > 100 µM (inactive) | > 100 µM (inactive) | > 100 µM (inactive) | > 100 µM (inactive) | > 100 µM (inactive) | > 100 µM (inactive) | > 100 µM (inactive) | > 100 µM (inactive) | > 100 µM (inactive) | > 100 µM (inactive) | > 100 µM (inactive) | > 100 µM (inactive) | > 100 µM (inactive) | –
13 | O=C(CCCn1ccnc1[N+](=O)[O-])NCCn1cnc([N+](=O)[O-])n1 | > 100 µM (inactive) | > 100 µM (inactive) | > 100 µM (inactive) | > 100 µM (inactive) | > 100 µM (inactive) | > 100 µM (inactive) | > 100 µM (inactive) | > 100 µM (inactive) | > 100 µM (inactive) | > 100 µM (inactive) | > 100 µM (inactive) | > 100 µM (inactive) | > 100 µM (inactive) | > 100 µM (inactive) | > 100 µM (inactive) | > 100 µM (inactive) | > 100 µM (inactive) | > 100 µM (inactive) | – | > 100 µM (inactive)
14 | N#CCCC(CC#N)N1CCN(CCO)CC1 (stereo not given) | > 100 µM (inactive) | > 100 µM (inactive) | – | > 100 µM (inactive) | – | > 100 µM (inactive) | > 100 µM (inactive) | > 100 µM (inactive) | > 100 µM (inactive) | > 100 µM (inactive) | > 100 µM (inactive) | > 100 µM (inactive) | > 100 µM (inactive) | > 100 µM (inactive) | > 100 µM (inactive) | > 100 µM (inactive) | > 100 µM (inactive) | > 100 µM (inactive) | > 100 µM (inactive) | –
15 | CN1CC=C(OP(=O)(NCc2ccccc2)N(CCCl)CCCl)CC1 (stereo not given) | > 100 µM (inactive) | > 100 µM (inactive) | > 100 µM (inactive) | > 100 µM (inactive) | > 100 µM (inactive) | > 100 µM (inactive) | 61.8 µM (inactive) | > 100 µM (inactive) | > 100 µM (inactive) | 40.9 µM (inactive) | – | > 100 µM (inactive) | > 100 µM (inactive) | > 100 µM (inactive) | > 100 µM (inactive) | > 100 µM (inactive) | > 100 µM (inactive) | > 100 µM (inactive) | > 100 µM (inactive) | –
